Experimental data: ChEMBL document CHEMBL3886941 (2016)

Target: Transient receptor potential M8 protein (Canis lupus familiaris, UniProt Q1A7N1)
Assay: Functional Assay: The functional activity of compounds of the formula (I) was determined by measuring changes in intracellular calcium concentration using a Ca2+-sensitive fluorescent dye. The changes in fluorescent signal were monitored by a fluorescence plate reader, either a FLIPR (Molecular Devices) or FDSS (Hamamatsu). Increases in intracellular Ca2+ concentration were readily detected upon activation with icilin.At 24 hrs prior to assay, HEK293 cells stably expressing canine TRPM8 were seeded in culture medium in black wall, clear-base poly-D-lysine coated 384-well plates (BD Biosciences, NJ, USA) and grown overnight in 5% CO2 at 37° C. On assay day, growth media was removed and cells were loaded with Calcium 3 Dye (Molecular Devices) for 35 min at 37° C., under 5% CO2 and then for 25 min at room temperature and atmosphere. Subsequently, cells were tested for agonist-induced increases in intracellular Ca2+ levels using FLIPR or FDSS. Cells were challenged with a compound of the Formula (I) (at varying concentrations) and intracellular Ca2+ was measured for 5 min prior to the addition of icilin to all wells to achieve a final concentration that produces approximately an 80% maximal response. EC50 or IC50 values for compounds of the present invention were determined from eight-point dose-response studies.
Type: cell-based

Transient receptor potential M8 protein, sequence (Q1A7N1 whole entry): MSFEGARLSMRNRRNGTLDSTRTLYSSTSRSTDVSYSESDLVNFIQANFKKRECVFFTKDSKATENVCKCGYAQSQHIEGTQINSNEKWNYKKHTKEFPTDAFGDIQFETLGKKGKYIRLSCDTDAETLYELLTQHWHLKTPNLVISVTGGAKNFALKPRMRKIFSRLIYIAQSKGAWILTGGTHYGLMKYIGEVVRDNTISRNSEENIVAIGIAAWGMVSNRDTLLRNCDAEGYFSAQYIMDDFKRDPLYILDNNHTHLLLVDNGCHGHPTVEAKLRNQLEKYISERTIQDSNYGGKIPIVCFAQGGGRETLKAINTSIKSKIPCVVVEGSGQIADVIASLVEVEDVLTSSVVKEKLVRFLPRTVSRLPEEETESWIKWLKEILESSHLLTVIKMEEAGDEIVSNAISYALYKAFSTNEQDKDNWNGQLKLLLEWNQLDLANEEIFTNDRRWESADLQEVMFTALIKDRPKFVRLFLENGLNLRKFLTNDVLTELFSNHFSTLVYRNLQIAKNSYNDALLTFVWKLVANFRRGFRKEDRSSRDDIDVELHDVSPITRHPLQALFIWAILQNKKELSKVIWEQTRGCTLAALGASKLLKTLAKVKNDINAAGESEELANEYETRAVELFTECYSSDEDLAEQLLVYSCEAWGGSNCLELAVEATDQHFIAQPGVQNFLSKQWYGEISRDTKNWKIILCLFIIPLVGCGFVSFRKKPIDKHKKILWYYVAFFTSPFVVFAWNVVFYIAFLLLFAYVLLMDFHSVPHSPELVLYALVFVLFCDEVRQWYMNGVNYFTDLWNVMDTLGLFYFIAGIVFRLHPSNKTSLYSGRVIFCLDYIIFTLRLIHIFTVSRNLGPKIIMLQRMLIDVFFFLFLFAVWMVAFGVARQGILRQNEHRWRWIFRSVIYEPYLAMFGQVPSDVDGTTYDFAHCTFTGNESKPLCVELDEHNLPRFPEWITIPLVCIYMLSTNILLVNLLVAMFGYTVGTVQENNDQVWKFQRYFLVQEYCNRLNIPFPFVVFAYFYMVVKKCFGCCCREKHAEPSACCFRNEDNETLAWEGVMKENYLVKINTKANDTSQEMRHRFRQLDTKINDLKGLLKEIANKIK

| SMILES | IC50 [nM] |
| --- | --- |
| COc1ccc(CN(c2sc3ccccc3c2C)S(=O)(=O)c2ccc(C(=O)O)cc2)cc1OC | 6 |
| O=[N+]([O-])c1cccc(CN(c2sc3ccccc3c2Br)S(=O)(=O)c2ccccc2)c1 | 10.4 |
| CCCN(c1sc2ccccc2c1C)S(=O)(=O)c1ccc(C(=O)O)cc1 | 53 |
| O=S(=O)(c1cccs1)N(Cc1ccc(F)c(C(F)(F)F)c1)c1sc2ccccc2c1Cl | 6 |
| O=S(=O)(c1ccccc1)N(CCc1ccccc1)c1sc2ccccc2c1Cl | 24 |
| CC(C)(C)OC(=O)N1CCCC1CN(c1sc2ccccc2c1Cl)S(=O)(=O)c1ccccc1 (centres undefined) | 205 |
| O=S(=O)(CC(F)(F)F)N(Cc1ccc(F)c(C(F)(F)F)c1)c1sc2ccccc2c1CO | 15 |
| O=c1[nH]c(-c2ccc(S(=O)(=O)N(CCC(F)(F)F)c3sc4ccccc4c3Br)cc2)no1 | 18.1 |
| CCCCN(c1sc2ccccc2c1C(C)O)S(=O)(=O)CC (centres undefined) | 38 |
| Cc1c(N(Cc2ccccc2)S(=O)(=O)c2ccc(C(=O)O)cc2)sc2ccccc12 | 4 |
| O=c1[nH]c(-c2ccc(S(=O)(=O)N(CCCCC(F)(F)F)c3sc4ccccc4c3Br)cc2)no1 | 7.9 |
| COC(=O)CCS(=O)(=O)N(CCC(F)(F)F)c1sc2ccccc2c1C | 24.1 |
| CCS(=O)(=O)N(Cc1ccc(F)c(F)c1)c1sc2ccccc2c1C(C)=O | 15 |
| Cc1c(N(Cc2cc(Cl)ccc2Cl)S(=O)(=O)c2ccc(C(=O)O)cc2)sc2ccccc12 | 9 |
| O=S(=O)(c1ccc(-c2nnn[nH]2)cc1)N(CCC(F)(F)F)c1sc2ccccc2c1Br | 19 |
| CCS(=O)(=O)N(Cc1ccc(F)c(OC)c1)c1sc2ccccc2c1C(C)(C)O | 4.1 |
| O=S(=O)(c1ccc(-c2nnn[nH]2)cc1)N(CCC1CC1)c1sc2ccccc2c1Br | 6 |
| Cc1c(N(Cc2ccc3c(c2)OC(F)(F)O3)S(=O)(=O)c2ccc(C(=O)O)cc2)sc2ccccc12 | 2 |
| O=S(=O)(c1ccc(-c2nnn[nH]2)cc1)N(CCCCC(F)(F)F)c1sc2ccccc2c1Br | 8.8 |
